Test results taken from paper PMC9738927, “A Newly Identified Monoterpenoid-Based Small Molecule Able to Support the Survival of Primary Cultured Dopamine Neurons and Alleviate MPTP-Induced Toxicity In Vivo” (Molecules, 2022).

Legend:
[1] = test system: naïve primary midbrain dopamine neurons; assay: Survival of naïve cultured dopamine neurons (TH-positive cell count); assay type: cell-based, mouse
Procedure: (§1) We developed a compound library containing 20 diol derivatives and screened them on cultured primary DA neurons (Supplementary Materials, Table S1). Compounds were taken at a dose of 0.1 and 1 μM (based on effective doses for the epoxydiol). Based on the screening results, we selected four compounds and tested them in a naïve and MPP^+-treated (1-methyl-4-phenylpyridinium (MPP^+), the neurotoxic metabolite of MPTP) DA culture at 1, 10, and 100 nM to select the compound with the lowest effective dose.
(§2) The survival of cultured mouse DA neurons was assessed as described before. Briefly, naïve or MPP^+ (dopaminergic selective neurotoxin)-challenged embryonic midbrain neurons were cultured in the presence or absence of a diol-like compound. The number of survived DA neurons was estimated after immunocytochemical staining with antibodies recognizing the key enzyme of dopamine synthesis—tyrosine hydroxylase.

[2] = test system: MPP^+-treated primary midbrain dopamine neurons; assay: Survival of MPP+-challenged cultured dopamine neurons (TH-positive cell count); assay type: cell-based, mouse
Procedure: as §1, §2

[3] = test system: MPTP-lesioned C57BL/6 mice; assay: DA and DOPAC levels in midbrain and striatum by HPLC-ED after MPTP lesion; assay type: in vivo
Procedure: Neurochemical analyses via HPLC-ED were conducted as described before. Microdissected samples of the striatum (ST) and midbrain were homogenized in 300 and 400 µL of cold 0.6 M HClO4, respectively, using a motor-driven grinder (Z359971, Sigma-Aldrich, USA) and the homogenate was spun for 15 min at 12,000 rpm (+4 °C). The pellet was diluted in 1 mL of 0.1 M NaCl and used for protein quantitation by Bradford (Bio Rad, USA) according to the manufacturer’s protocol. The clear supernatant was diluted twice with pure water and used for assay of DA and […] (DOPAC) by HPLC on Luna C18(2) column (5 μm particle size, L × I.D. 75 × 4.6 mm, Phenomenex, Torrance, CA, USA) with electrochemical detection (750 mV, DECADE II™ Electrochemical Detector; Antec, The Netherlands). The standard mixes containing 1, 2, and 3 ng of DA and DOPAC were repeatedly assayed throughout the entire procedure and used to plot the calibration curves for each substance. The areas of peaks were estimated using LabSolution LG/GC software version 5.54 (Shimadzu Corporation, Japan) and calibrated against the calibrated curves for corresponding standards. The contents of DA and DOPAC were expressed nanogram (ng) per milligram (mg) of protein assayed by Bradford.

MPTP-treated mice = test system: MPTP-treated mice; design: method as in PMID 31464415; conditions: related compound; cited from earlier work
[4] = test system: naïve primary midbrain dopamine neurons; design: method as in PMID 31464415; conditions: cultured DA neurons; cited from earlier work
[5] = 1 uM, compared to VEH-treated wells
[6] = positive control, compared to VEH

## C=C(CSC(C)(C)C)C1CC2OC2(C)C(O)C1O (stereo not drawn) [Substance 10]
[1]; [5]
  Support effect / inhibition, Naïve dopamine neurons, 1 uM: - (29-1% – -)

## C=CC1(O)C(O)C(C)=CCC1C(=C)C (stereo not drawn) [Substance 8]
[2]; 1 nM, compared to VEH-treated wells
  Support effect / inhibition, MPP+-treated dopamine neurons, 1 nM: 0 (0% – 0)
[2]; 10 nM, compared to VEH-treated wells
  Support effect / inhibition, MPP+-treated dopamine neurons, 10 nM: 0 (0% – 0)
[2]; 100 nM, compared to VEH-treated wells
  Support effect / inhibition, MPP+-treated dopamine neurons, 100 nM: 0 (0% – 0)

## C=C(CSCC(C)C)C1CC2OC2(C)C(O)C1O (stereo not drawn) [Substance 11]
[1]; [5]
  Support effect / inhibition, Naïve dopamine neurons, 1 uM: - - (Inhibition 69-30% – - -)

## C=C(C)[C@@H]1CC=C(C)[C@@H](OC(C)=O)[C@@H]1OC(C)=O [Substance 1]
[1]; Mus musculus, Neuron, 1 uM, compared to VEH-treated wells, read-out: Support effect / inhibition, Naïve dopamine neurons, 1 uM
  inhibition at 1 µM: 1 to 29%

## N[C@@H](Cc1ccc(O)c(O)c1)C(=O)O [L-DOPA, reference compound]
[3]
  MPTP-induced reduction in DA level in the midbrain: tended to alleviate

## C=C(CSc1ccc(Cl)cc1)C1CC2OC2(C)C(O)C1O (stereo not drawn) [Substance 9]
[1]; [5]
  Support effect / inhibition, Naïve dopamine neurons, 1 uM: - (29-1% – -)

## C=C(C)[C@@H]1C[C@H]2O[C@@]2(C)[C@@H](O)[C@@H]1O [epoxydiol]
MPTP-treated mice
  antiparkinsonian activity in vivo (effective dose): 20 mg/kg
[4]
  effective concentration in survival assay for DA neurons: 100 nM
  effective doses in survival assay of cultured dopamine neurons: 0.1 to 1 µM

## C=C(CSCc1ccccc1)C1CC2OC2(C)C(O)C1O (stereo not drawn) [Substance 13]
[1]; [5]
  Support effect / inhibition, Naïve dopamine neurons, 1 uM: - (29-1% – -)

## C#CC1(O)C(O)C(C)=CCC1C(=C)C (stereo not drawn) [Substance 7]
[1]; [5]
  Support effect / inhibition, Naïve dopamine neurons, 1 uM: - (29-1% – -)

B1: GDNF: glial cell line-derived neurotrophic factor, positive control in the neuron survival assays (protein, UniProt P39905 78-211, looked up)
Glial cell line-derived …: SPDKQMAVLPRRERNRQAAAANPENSRGKGRRGQRGKNRGCVLTAIHLNVTDLGLGYETKEELIFRYCSGSCDAAETTYDKILKNLSRNRRLVSDKVGQACCRPIAFDDDLSFLDDNLVYHILRKHSAKRCGCI
[1]; [6]
  survival of naïve primary midbrain dopamine neurons: promotes the survival
[2]; [6]
  survival of MPP+-treated primary midbrain dopamine neurons: promotes the survival
